Data set [1] concerns poliovirus Sabin strains 1, 2, and 3. Nature of the data set: microbe, parasite or virus in culture. Particulars: for EC50: Enterovirus C, read-out: EC50. The format is cell-based.
For data set [2], the system named is poliovirus Sabin strain 3 (PV3). Nature of the data set: microbe, parasite or virus in culture. Format: cell-based. To be noted: Enterovirus C, HeLa, 72 h, read-out: EC50 PV3.
Another data set in a line: in vitro. Particulars: human.
In data set [3] the test system is poliovirus Sabin strain 1 (PV1). Nature of the data set: microbe, parasite or virus in culture. To be noted: for EC50: Enterovirus C, HeLa, 72 h, read-out: EC50 PV1. The format is cell-based.
Data set [4] has as its system poliovirus Sabin strain 2 (PV2). Nature of the data set: microbe, parasite or virus in culture. Format: cell-based. Particulars: Enterovirus C, HeLa, 72 h, read-out: EC50 PV2.
The conditions of data set [5]: in vivo; cited from earlier work.
For data set [6] the following is noted: cited from earlier work.
Another data set relates to poliovirus 1 Sabin. The format is cell-based.
The subject of another data set is PV. Particulars: in vivo; cited from earlier work.

Each structure is given as a SMILES string. “Also recorded” adds a separate entry of the source. Like-named read-outs stand apart in the source and are kept apart here.

As to `C[C@@]1(O)[C@H](O)[C@@H](CO)O[C@H]1n1cnc2c(N)ncnc21` [2'-C-methyladenosine, 2′-C-methyladenosine], the EC50 in data set [1] is ~5 µM; in data set [2], 5.4 ± 0.4 µM; in data set [3], 5.5 µM; in data set [4], 5.6 ± 0.1 µM. For the same compound, in the data set “in vitro”, the CC50 is 84 µM.

Consider `C[C@@]1(O)[C@H](O)[C@@H](CO)O[C@H]1n1ccc(N)nc1=O` [2'-C-methylcytidine, 2′-C-methylcytidine], for which the EC50 in data set [1] was 3.9 to 29 µM; in data set [2], 3.9 ± 2.3 µM; in data set [3], 15 ± 18 µM; in data set [4], 29 ± 27 µM. In addition, the CC50 in “in vitro” was > 100 µM.

For the compound `[N-]=[N+]=N[C@]1(CO)O[C@@H](n2ccc(N)nc2=O)[C@H](O)[C@@H]1O` [4’-azidocytidine, 4′-azidocytidine], the “anti-PV activity” value in [1] is “inactive; also recorded: devoid of anti-PV activity”. The concentration for a half-maximal effect (EC50) in data set [2], in data set [3] and in data set [4] was > 100 µM throughout. Also, in “in vitro”, the CC50 was > 100 µM.

With `C#CCC(C(=O)NC(C=CC(=O)OCC)CC1CCNC1=O)n1cccc(NC(=O)c2cc(C)on2)c1=O` (stereo not shown) [Compound 1], the half-maximal effective concentration (EC50) in data set [1] is < 1 µM; in data set [3], 0.26 ± 0.24 µM. The oral bioavailability entry in [5] is recorded as “excellent”. In the data set “in vitro”, the CC50 was > 100 µM. Moreover, the “cytotoxicity” value in the data set on HeLa cells (ATCC CCL-2) is “without any signs of cytotoxicity”.

Regarding `CC(C)S(=O)(=O)n1c(N)nc2ccc(/C(=N/O)c3ccccc3)cc21` [Enviroxime], the EC50 in data set [1] is 0.035 to 0.2 µM; in [2], 0.035 ± 0.029 µM; in data set [3], 0.2 ± 0.25 µM; in data set [4] it was 0.056 ± 0.02 µM. Further, in the data set “in vitro”, the CC50 is 58 ± 6 µM. Further, the activity in vivo entry in data set [6] is on record as “weak to moderate”. In addition, the toxicity in vivo result in [6] is given as “toxicity”.

For the compound `OC(c1ccccc1)c1nc2ccccc2[nH]1` (stereo not drawn) [HBB, 2-(α-hydroxybenzyl)-benzimidazole], the EC50 in data set [1] was 200 to 300 µM; in [2], 295 ± 88 µM; in data set [3], 300 ± 68 µM; in [4], 225 ± 128 µM. In addition, the CC50 in the data set “in vitro” was > 400 µM.

As to `N#Cc1cc([N+](=O)[O-])ccc1Oc1ccc(Cl)c(Cl)c1` [MDL-860, 2-(3,4-dichlorophenoxy)-5-nitrobenzonitrile], the values for the EC50 in data set [2], in data set [3] and in [4] were 2.2 ± 1.5 µM, 6 ± 1.6 µM and 3.6 ± 2.2 µM, respectively. Further, the CC50 in the data set “in vitro” is > 100 µM.

With `N=c1ccn(Cc2nc3ccccc3n2-c2ccc(F)cc2)cc1` [MRL-1237], the EC50 in [2] was 3.8 ± 2.5 µM; in [3], 5.3 ± 0.3 µM; in data set [4], 4.6 ± 1.4 µM. Further, the CC50 in “in vitro” is > 100 µM.

`CCOC(=O)c1ccc(OCCC2CCN(c3ccc(C)nn3)CC2)cc1` [Pirodavir (R77975)]: the EC50 in data set [1] (HeLa) was < 2 µM; in data set [2] it was 0.56 ± 0.03 µM; in data set [3], 10 ± 1 µM; in data set [4], 1.7 ± 0.1 µM. Besides, in data set [5], the “metabolic stability after oral administration” value is “metabolic instability”. Also, in “in vitro”, the CC50 was > 100 µM.

For `CCOC(=O)c1ccc(OCCCC2CCN(c3ccc(C)nn3)CC2)cc1` [Pirodavir analog (R78206)], the concentration for a half-maximal effect (EC50) in data set [1] (HeLa) is < 2 µM; in data set [2], 0.11 ± 0.1 µM; in [3], 0.76 ± 0.18 µM; in data set [4] it was 0.22 ± 0.19 µM. The same compound gave a CC50 in “in vitro” of 27 ± 34 µM. In addition, in data set [3], the “Inhibitory activity against PV1” value was “exhibited inhibitory activity”.

In the case of `Cc1cc(CCCOc2c(C)cc(-c3noc(C(F)(F)F)n3)cc2C)on1` [Pleconaril], the EC50 in data set [1] (HeLa) was < 2 µM; in data set [2] it was 0.22 ± 0.15 µM; in data set [3], > 100 µM; in data set [4] it was 1.1 ± 0.6 µM. For the same compound, the CC50 in the data set “in vitro” was determined as 66 ± 6 µM. In the data set with poliovirus 1 Sabin, the “reduction of infectious virus yield” value is on record as “not able to reduce infectious virus yield”. In addition, the “benefit of treatment in a persistently infected person” value in the data set with PV is “no benefit”. In addition, the “virus excretion in a child persistently infected with PV” value in the data set with PV is on record as “effective in stopping virus excretion”. The “Inhibitory activity against PV1” value in data set [3] is “inactive”.

For `NC(=O)c1ncn([C@@H]2O[C@H](CO)[C@@H](O)[C@H]2O)n1` [Ribavirin], the EC50 is 50 to 60 µM in data set [1], 55 ± 7 µM in data set [2], 57 ± 13 µM in data set [3] and 64 ± 4 µM in data set [4]. For the same compound, in the data set “in vitro”, the CC50 is > 100 µM.

On to `CCOC(=O)/C=C/[C@H](C[C@@H]1CCNC1=O)NC(=O)[C@@H](CC(=O)[C@@H](NC(=O)c1cc(C)on1)C(C)C)Cc1ccc(F)cc1` [Rupintrivir], for which the 50% effective concentration (EC50) in data set [2] is 0.0052 ± 0.0046 µM; in data set [3], 0.022 ± 0.028 µM; in data set [4] it was 0.041 ± 0.024 µM. Besides, the CC50 in the data set “in vitro” is > 100 µM. The “decrease of infectious virus production” value in the data set with poliovirus 1 Sabin stood at 6 log10. In the data set on poliovirus 1 Sabin, the “reduction of virus progeny formation” value was 10–1,000 fold. Besides, the “cytotoxicity” value in the data set with HeLa cells (ATCC CCL-2) is “without any signs of cytotoxicity”.

Broadly, the EC50 is the midpoint of the concentration-response curve.

The record behind these values is publication PMC2570929 (Emerging Infectious Diseases, 2008).
